pIC50: −log10 of the molar value. The source made the active and inactive calls. The rule behind the calls is not given here.
Experiments:
A-375 = assay: Antiproliferative activity against human A-375 cells assessed as inhibition of cell growth incubated for 48 hrs by MTT assay; type: functional, cell-based; conditions: A-375, 48 h
A549 [1] = assay: Antiproliferative activity against human A549 cells assessed as inhibition of cell growth incubated for 48 hrs by MTT assay; type: functional, cell-based; conditions: A549, 48 h
MDA-MB-231 = assay: Antiproliferative activity against human MDA-MB-231 cells assessed as inhibition of cell growth incubated for 48 hrs by MTT assay; type: functional, cell-based; conditions: MDA-MB-231, 48 h
MCF7 = assay: Antiproliferative activity against human MCF7 cells assessed as inhibition of cell growth incubated for 48 hrs by MTT assay; type: functional, cell-based; conditions: MCF7, 48 h
HCT-116 = assay: Antiproliferative activity against human HCT-116 cells assessed as inhibition of cell growth incubated for 48 hrs by MTT assay; type: functional, cell-based; conditions: HCT-116, 48 h
PC-3 = assay: Antiproliferative activity against human PC-3 cells assessed as inhibition of cell growth incubated for 48 hrs by MTT assay; type: functional, cell-based; conditions: PC-3, 48 h
[2] = Cytotoxicity against human L02 cells assessed as inhibition of cell growth incubated for 48 hrs by MTT assay; type: toxicity, cell-based
[3] = Cytotoxicity against HUVEC assessed as inhibition of cell growth incubated for 48 hrs by MTT assay; type: toxicity, cell-based; conditions: human
[4] = Toxicity in mouse assessed as death at 10 to 20 mg/kg, ip administered for 7 days and measured every 2 days; type: organism-based; conditions: in vivo, 168 h, dose 10-20 mg/kg, time 7 day
[5] = Toxicity in mouse assessed as clinical signs at 10 to 20 mg/kg, ip administered for 7 days and measured every 2 days; type: organism-based; conditions: in vivo, 168 h, dose 10-20 mg/kg, time 7 day
[6] = Toxicity in mouse assessed as effect on body weight at 20 mg/kg, ip administered for 7 days and measured every 2 days; type: organism-based; conditions: in vivo, 168 h, time 7 day
A549 [7] = assay: Antiproliferative activity against human A549 cells assessed as inhibition of cell growth preincubated with FCCP for 1 hrs followed by compound addition and measured after 48 hrs by MTT assay; type: functional, cell-based
A549 [8] = assay: Induction of mitochondrial membrane depolarization in human A549 cells assessed as loss of red fluorescence at 2 to 8 uM incubated for 4 hrs by TMRM staining based fluorescence assay; type: functional, cell-based; conditions: dose 2-8 µM
A549 [9] = assay: Induction of mitochondrial membrane depolarization in human A549 cells assessed as increase in green fluorescence by measuring JC-1 monomer at 2 to 8 uM incubated for 4 hrs by JC-1 dye based assay; type: functional, cell-based; conditions: dose 2-8 µM
A549 [10] = assay: Induction of mitochondrial membrane depolarization in human A549 cells assessed as increase in JC-1 monomer ratio at 2 to 8 uM incubated for 24 hrs by JC-1 staining based flow cytometric analysis; type: functional, cell-based; conditions: dose 2-8 µM
A549 [11] = assay: Induction of apoptosis in human A549 cells at 4 uM by Annexin V-FITC/PI staining based flow cytometric analysis; type: functional, cell-based; conditions: time 12-48 hrs, TDE = time-dependent effect
A549 [12] = assay: Induction of apoptosis in human A549 cells assessed as total apoptotic cells at 1 uM incubated for 48 hrs by Annexin V-FITC/PI staining based flow cytometric analysis relative to control; type: functional
A549 [13] = assay: Induction of apoptosis in human A549 cells assessed as total apoptotic cells at 2 uM incubated for 48 hrs by Annexin V-FITC/PI staining based flow cytometric analysis relative to control; type: functional
A549 [14] = assay: Induction of apoptosis in human A549 cells assessed as total apoptotic cells at 4 uM incubated for 48 hrs by Annexin V-FITC/PI staining based flow cytometric analysis relative to control; type: functional
A549 [15] = assay: Induction of cell cycle arrest in human A549 cells assessed as G1 phase cells at 1 uM incubated for 24 hrs by flow cytometric analysis (reference value: 60.75 %); type: functional
A549 [16] = assay: Induction of cell cycle arrest in human A549 cells assessed as S phase cells at 1 uM incubated for 24 hrs by flow cytometric analysis (reference value: 23.49 %); type: functional
A549 [17] = assay: Induction of cell cycle arrest in human A549 cells assessed as G2 phase cells at 1 uM incubated for 24 hrs by flow cytometric analysis (reference value: 15.75 %); type: functional
A549 [18] = assay: Induction of cell cycle arrest in human A549 cells assessed as G1 phase cells at 2 uM incubated for 24 hrs by flow cytometric analysis (reference value: 60.75 %); type: functional
A549 [19] = assay: Induction of cell cycle arrest in human A549 cells assessed as S phase cells at 2 uM incubated for 24 hrs by flow cytometric analysis (reference value: 23.49 %); type: functional
A549 [20] = assay: Induction of cell cycle arrest in human A549 cells assessed as G2 phase cells at 2 uM incubated for 24 hrs by flow cytometric analysis (reference value: 15.75 %); type: functional
A549 [21] = assay: Induction of cell cycle arrest in human A549 cells assessed as G1 phase cells at 4 uM incubated for 24 hrs by flow cytometric analysis (reference value: 60.75 %); type: functional
A549 [22] = assay: Induction of cell cycle arrest in human A549 cells assessed as S phase cells at 4 uM incubated for 24 hrs by flow cytometric analysis (reference value: 23.49 %); type: functional
A549 [23] = assay: Induction of cell cycle arrest in human A549 cells assessed as G2 phase cells at 4 uM incubated for 24 hrs by flow cytometric analysis (reference value: 15.75 %); type: functional
A549 [24] = assay: Inhibition of cell migration in human A549 cells at 2 uM incubated for 48 hrs by wound healing assay; type: functional, cell-based
A549 [25] = assay: Inhibition of cell invasion in human A549 cells at 2 to 4 uM incubated for 24 hrs by transwell invasion assay; type: functional, cell-based; conditions: dose 2-4 µM
[26] = Toxicity in mouse assessed as effect on lung pathology at 10 to 20 mg/kg, ip administered for 7 days and measured every 2 days; type: organism-based; conditions: in vivo, 168 h, dose 10-20 mg/kg, time 7 day
[27] = Toxicity in mouse assessed as effect on heart pathology at 10 to 20 mg/kg, ip administered for 7 days and measured every 2 days; type: organism-based; conditions: in vivo, 168 h, dose 10-20 mg/kg, time 7 day
[28] = Toxicity in mouse assessed as effect on liver pathology at 10 to 20 mg/kg, ip administered for 7 days and measured every 2 days; type: organism-based; conditions: in vivo, 168 h, dose 10-20 mg/kg, time 7 day
[29] = Toxicity in mouse assessed as effect on spleen pathology at 10 to 20 mg/kg, ip administered for 7 days and measured every 2 days; type: organism-based; conditions: in vivo, 168 h, dose 10-20 mg/kg, time 7 day
[30] = Toxicity in mouse assessed as effect on kidney pathology at 10 to 20 mg/kg, ip administered for 7 days and measured every 2 days; type: organism-based; conditions: in vivo, 168 h, dose 10-20 mg/kg, time 7 day

CO[C@@]12[C@H](COC(N)=O)C3=C(C(=O)C(C)=C(N)C3=O)N1C[C@H]1[C@@H]2N1CCCCCCCCCC[P+](c1ccccc1)(c1ccccc1)c1ccccc1 (some centres undefined)
pIC50 (A-375): 5.71 | pIC50 (A549 [1]): 5.55 | pIC50 (MDA-MB-231): 5.71 | pIC50 (MCF7): 5.50 | pIC50 (HCT-116): 5.71 | pIC50 (PC-3): 5.33 | IC50 at 48 h [2]: > 5 µM | IC50 at 48 h [3]: 10 µM

CO[C@@]12[C@H](COC(N)=O)C3=C(C(=O)C(C)=C(N)C3=O)N1C[C@H]1[C@@H]2N1C(=O)CCCCCCC[P+](c1ccccc1)(c1ccccc1)c1ccccc1
pIC50 (A-375): 5.73 | pIC50 (A549 [1]): 5.88 | pIC50 (MDA-MB-231): 5.12 | pIC50 (MCF7): 5.18 | pIC50 (HCT-116): 5.91 | pIC50 (PC-3): 4.92 | IC50 at 48 h [2]: > 20 µM | IC50 at 48 h [3]: > 20 µM

CO[C@@]12[C@H](COC(N)=O)C3=C(C(=O)C(C)=C(N)C3=O)N1C[C@H]1[C@@H]2N1C(=O)CCCCCCCCCCC[P+](c1ccccc1)(c1ccccc1)c1ccccc1
pIC50 (A-375): 6.19 | pIC50 (A549 [1]): 6.17 | pIC50 (MDA-MB-231): 5.58 | pIC50 (MCF7): 5.34 | pIC50 (HCT-116): 6.12 | pIC50 (PC-3): 6.01 | IC50 at 48 h [2]: > 2.5 µM | IC50 at 48 h [3]: > 5 µM

CO[C@@]12[C@H](COC(N)=O)C3=C(C(=O)C(C)=C(N)C3=O)N1C[C@H]1[C@@H]2N1C(=O)CCCCCCCCC[P+](c1ccccc1)(c1ccccc1)c1ccccc1.[Br-]
pIC50 (A-375): 5.84 | pIC50 (A549 [1]): 5.96 | pIC50 (MDA-MB-231): 5.51 | pIC50 (MCF7): 5.26 | pIC50 (HCT-116): 5.91 | pIC50 (PC-3): 5.22 | IC50 at 48 h [2]: > 20 µM | IC50 at 48 h [3]: > 20 µM | Activity [4]: Non-Toxic | Activity [5]: Non-Toxic | Activity [6]: Non-Toxic | pIC50 (A549 [7]): 4.95 | Activity (A549 [8]): Active | Activity (A549 [9]): Active | Activity (A549 [10]): Active | Activity (A549 [11]): Tde | Activity (A549 [12]): 18% | Activity (A549 [13]): 20.2% | Activity (A549 [14]): 24.9% | Activity (A549 [15]): 14.87% | Activity (A549 [16]): 50.92% | Activity (A549 [17]): 34.21% | Activity (A549 [18]): 5.79% | Activity (A549 [19]): 49.53% | Activity (A549 [20]): 44.68% | Activity (A549 [21]): 0.72% | Activity (A549 [22]): 84.94% | Activity (A549 [23]): 14.35% | inhibition (A549 [24]): Active | inhibition (A549 [25]): Active | Activity [26]: Non-Toxic | Activity [27]: Non-Toxic | Activity [28]: Non-Toxic | Activity [29]: Non-Toxic | Activity [30]: Non-Toxic

Source: ChEMBL document CHEMBL5150024, “Design and synthesis of TPP+-Mitomycin C conjugate with reduced toxicity” (Bioorg Med Chem Lett, 2022)
